# Test system: hepatic ischaemia-reperfusion injury in C57BL/6J mice
# Test: Mouse model of hepatic ischaemia-reperfusion injury
# Assay type: in vivo
# Settings: 50 mg/kg osmotic pump, 1 h ischaemia, 6 h reperfusion
# Experimental: Mice (10–12 weeks-old) were anesthetised with isoflurane and subcutaneously implanted with Alzet® osmotic pump containing C105SR (50 mg/kg) or vehicle 24 h before the surgical procedure. The mice were anesthetised with isoflurane and subjected to partial hepatic ischaemia by clamping the hepatic artery and portal vein for 60 min, followed by 6 h of reperfusion induced by removal of the clamp. The sham-operated group underwent laparotomy without vascular occlusion.
# Briefly, 70% of the liver was subjected to 1 h of ischaemia followed by 6 h of reperfusion, as recently described.[16] C105SR was administered using osmotic pumps at a dose of 50 mg/kg.
# Mouse serum analysis. Blood was collected at 6 h of reperfusion. Alanine aminotransferase (ALT) and aspartate aminotransferase (AST) activities were measured on an automated analyzer in the Biochemistry Department of Henri Mondor Hospital.
# Histological Analysis. Hematoxylin and eosin staining was performed on 4-μm thick formalin-fixed paraffin-embedded tissue sections. Slides were scanned at x20 magnification using a virtual slide scanning system (Axio scan7/ZEN slidescan). Necrosis areas were quantified with […]
# TUNEL Assay. Terminal deoxynucleotidyl-transferase (TdT) dUTP Nick-End Labeling (TUNEL) was performed on formalin-fixed paraffin-embedded tissue sections using a commercial kit (Abcam, Cambridge, United Kingdom) following the manufacturer’s instructions. The number of TUNEL-positive cells were quantified using QuPath on slides scanned at x20 magnification using a virtual slide scanning system (Axio scan7/ZEN slidescan).
# Caspase 3/7 activity assay. Caspase 3/7 activity was assessed using the commercially Caspase-Glo® 3/7 assay (Promega, Madison, Wisconsin) following the manufacturer’s instructions.
# Briefly, Caspase-Glo® 3/7 Reagent was incubated with the cells and the caspase3/7 activity was determined by measuring luminescence with a luminometer (Berthold). Caspase3/7 activity was expressed as a percentage of the untreated control.
# In silico modeling and docking. […]
smiles,measurement,setting,value
"COc1ccc(Br)cc1[C@H](NC(=O)NCc1ccc2c(c1)CCCN2)C(=O)N1CCC[C@@H]1c1cccc2ccsc12 [Compound C105SR, 1-((S)-2-((R)-2-(benzo[b]thiophen-7-yl)pyrrolidin-1-yl)-1-(5-bromo-2-methoxyphenyl)-2-oxoethyl)-3-((1,2,3,4-tetrahydroquinolin-6-yl)methyl)urea]",hepatocyte necrosis (histology),,significantly protected
same,serum ALT and AST levels,,significantly protected
same,number of TUNEL-positive apoptotic cells,vs vehicle,significantly reduced
